Source: US8673929B2, “4,6-di- and 2,4,6-trisubstituted quinazoline derivatives and pharmaceutical compositions useful for treating viral infections” (priority 2006, dated 2014)

Assays:
HCV replicon = test: Anti-HCV replicon assay, EC50 (luciferase readout); assay type: cell-based; settings: Hepatitis C virus, 72 h; Huh-7 HCV replicon cells, 3 days incubation, luciferase luminescence
Experimental: (§1) The anti HCV activity of the quinazoline derivatives of this invention was tested in a human hepatoma Huh-7 cell line harbouring a HCV replicon. The assay comprised the following steps:
(§2) Step 1: compound preparation and serial dilution • 1. for water soluble quinazoline derivatives, a volume of 500 μL of solution in cell media (DMEM, 10% FBS, P/S, L-Glutamine) was prepared with a concentration being twice the concentration of the starting final serial dilution concentration. A volume of 150 μL of the solution was added to the pre-specified wells in column 1 of a 96-well cell culture plate (PerkinElmer, white plate, cat. #6005181, for EC50 assay; black plate, cat. #6005182 for CC50 assay). The rest of the plate, columns 2-12, was filled with 100 μL of cell media. The plate was then placed on a Precision 2000 Workstation to start the serial dilution. Compounds were diluted three times each step from column 1 to column 10. Column 11 was used as a blank control (no compound added). • 2. for quinazoline derivatives requiring DMSO to dissolve, serial dilution is performed in 50% DMSO in a 384-well plate. A solution containing a compound at 100-fold concentration of the starting final serial dilution concentration was prepared in 50% DMSO and added to the pre-specified wells in column 1 of a polypropylene 384-well plate. The plate was then placed on a Precision 2000 Workstation to start the serial dilution. After the serial dilution, a volume of 2 μL of the solution was transferred from the 384-well plate to a 96-well cell culture plate containing 100 μL of cell media on a Biomek FX Workstation. The DMSO concentration in the final assay condition was 0.5% after cells are added to the plate and the total volume in each well is brought to 200 μL.
(§3) Step 2: to each well of the serial dilution plate prepared above, 100 μL of cell media containing 6000 suspended Huh-7 HCV replicon cells was added with a Multidrop workstation. The plates were incubated for 3 days at 37° C. with 5% CO2.
(§4) Step 3: detection: • a) for the EC50 assay, the media in a 96-well cell culture plate was aspirated with a Biotek EL405 plate-washer. A volume of 200 μL of a solution containing a 1:1 mixture of cell-lysis buffer (Promega, Luciferase Cell Culture Lysis 5× Reagent, cat. #E1531) and luciferase substrate solution (Promega, Luciferase Assay, cat.# E4550) was added to each well of the plate with Multidrop. The plate was incubated for 30 minutes at room temperature before the luminescence signal was measured with a TopCount plate-reader. • b) for the CC50 assay, a volume of 100 μL of pre-mixed CellTiter-Glo (Promega, cat.# G7572) solution is added directly to the cell culture in each well of the plate and the luminescence signal is measured with a TopCount plate-reader after 10 minutes of incubation at room temperature.
(§5) Results in the table below are expressed by the following data: • the 50% cytostatic concentration (CC50), i.e. the concentration that results in 50% inhibition of cell growth, and • the 50% effective concentration (EC50), i.e. the concentration that […].

[1] = CC50 assay in the anti-HCV replicon assay (CellTiter-Glo); assay type: cell-based, human; settings: human, Huh-7 hepatoma cells harbouring an HCV replicon; Huh-7 HCV replicon cells, 3 days incubation, CellTiter-Glo luminescence
Experimental: as §1, §2, §3, §4, §5

Row | Structure (SMILES) | EC50 (HCV replicon) [µM] | CC50 at 3 days [1] [µM]
1 | CC(C)Oc1nc(N)nc2ccc(-c3ccccc3OCc3ccccc3)cc12 [Example 98, 6-(2-Benzyloxy-phenyl)-4-isopropoxy-quinazolin-2-ylamine] | 1 to 10 | < 10
2 | CC(C)Oc1nc(N)nc2ccc(-c3ccc(C#N)cc3)cc12 [Example 99, 4-(2-Amino-4-isopropoxy-quinazolin-6-yl)-benzonitrile] | 0.3 to 1 | > 20
3 | CC(C)Oc1nc(N)nc2ccc(-c3ccc(O)cc3)cc12 [Example 100, 4-(2-Amino-4-isopropoxy-quinazolin-6-yl)-phenol] | < 0.3 | 10 to 20
4 | CC(C)Oc1nc(N)nc2ccc(-c3cnc4ccccc4c3)cc12 [Example 101, 4-Isopropoxy-6-quinolin-3-yl-quinazolin-2-ylamine] | 1 to 10 | 10 to 20
5 | Nc1nc(OCC2CCC2)c2cc(-c3ccc(F)cc3F)ccc2n1 [Example 102, 4-Cyclobutylmethoxy-6-(2,4-difluoro-phenyl)-quinazolin-2-ylamine] | 1 to 10 | < 10
6 | Nc1nc(OCC2CCC2)c2cc(-c3ccc(F)cc3)ccc2n1 [Example 103, 4-Cyclobutylmethoxy-6-(4-fluoro-phenyl)-quinazolin-2-ylamine] | 1 to 10 | 10 to 20
7 | Nc1nc(OCC2CCC2)c2cc(-c3cccc(F)c3F)ccc2n1 [Example 104, 4-Cyclobutylmethoxy-6-(2,3-difluoro-phenyl)-quinazolin-2-ylamine] | 1 to 10 | > 20
8 | Cc1ccccc1-c1ccc2nc(N)nc(OCC3CCC3)c2c1 [Example 105, 4-Cyclobutylmethoxy-6-o-tolyl-quinazolin-2-ylamine] | 1 to 10 | 10 to 20
9 | Nc1nc(OCC2CCC2)c2cc(-c3cccc(C(F)(F)F)c3)ccc2n1 [Example 106, 4-Cyclobutylmethoxy-6-(3-trifluoromethyl-phenyl)-quinazolin-2-ylamine] | 1 to 10 | 10 to 20
10 | Cc1ccc(-c2ccc3nc(N)nc(OCC4CCC4)c3c2)cc1 [Example 107, 4-Cyclobutylmethoxy-6-p-tolyl-quinazolin-2-ylamine] | 1 to 10 | > 20
11 | Nc1nc(OCC2CCC2)c2cc(-c3ccc(Cl)cc3Cl)ccc2n1 [Example 108, 4-Cyclobutylmethoxy-6-(2,4-dichloro-phenyl)-quinazolin-2-ylamine] | 1 to 10 | > 20
12 | CCOc1ccc(-c2ccc3nc(N)nc(OCC4CCC4)c3c2)cc1 [Example 109, 4-Cyclobutylmethoxy-6-(4-ethoxy-phenyl)-quinazolin-2-ylamine] | 1 to 10 | > 20
13 | Nc1nc(OCC2CCC2)c2cc(-c3ccc(F)cc3Cl)ccc2n1 [Example 110, 4-Cyclobutylmethoxy-6-(2-chloro-4-fluoro-phenyl)-quinazolin-2-ylamine] | 1 to 10 | 10 to 20
14 | Nc1nc(OCC2CCC2)c2cc(-c3ccoc3)ccc2n1 [Example 111, 4-Cyclobutylmethoxy-6-furan-3-yl-quinazolin-2-ylamine] | 0.3 to 1 | 10 to 20
15 | Nc1nc(OCC2CCC2)c2cc(-c3ccc(F)c(Cl)c3)ccc2n1 [Example 112, 4-Cyclobutylmethoxy-6-(3-chloro-4-fluoro-phenyl)-quinazolin-2-ylamine] | 1 to 10 | > 20
16 | Nc1nc(OCC2CCC2)c2cc(-c3ccn[nH]3)ccc2n1 [Example 113, 4-Cyclobutylmethoxy-6-(2H-pyrazol-3-yl)-quinazolin-2-ylamine] | 0.3 to 1 | 10 to 20
17 | Nc1nc(OCC2CCC2)c2cc(-c3cc4ccccc4o3)ccc2n1 [Example 114, 6-Benzofuran-2-yl-4-cyclobutylmethoxy-quinazolin-2-ylamine] | 1 to 10 | 10 to 20
18 | Nc1nc(OCC2CCC2)c2cc(-c3ccco3)ccc2n1 [Example 116, 4-Cyclobutylmethoxy-6-furan-2-yl-quinazolin-2-ylamine] | 1 to 10 | > 20

Row | Structure (SMILES) | EC50 (HCV replicon) [µM] | CC50 at 3 days [1] [µM]
19 | Nc1nc(OCC2CCC2)c2cc(-c3ccsc3)ccc2n1 [Example 117, 4-Cyclobutylmethoxy-6-thiophen-3-yl-quinazolin-2-ylamine] | 1 to 10 | 10 to 20
20 | Nc1nc(OCC2CCC2)c2cc(-c3cccnc3)ccc2n1 [Example 118, 4-Cyclobutylmethoxy-6-pyridin-3-yl-quinazolin-2-ylamine] | 0.3 to 1 | 10 to 20
21 | N#Cc1cccc(-c2ccc3nc(N)nc(OCC4CCC4)c3c2)c1 [Example 119, 3-(2-Amino-4-cyclobutylmethoxy-quinazolin-6-yl)-benzonitrile] | 1 to 10 | 10 to 20
22 | Nc1nc(OCC2CCC2)c2cc(-c3cn[nH]c3)ccc2n1 [Example 120, 4-Cyclobutylmethoxy-6-(2H-pyrazol-4-yl)-quinazolin-2-ylamine] | 0.3 to 1 | 10 to 20
23 | Nc1nc(OCC2CCC2)c2cc(-c3ccc(F)c(F)c3F)ccc2n1 [Example 121, 4-Cyclobutylmethoxy-6-(2,3,4-trifluoro-phenyl)-quinazolin-2-ylamine] | 1 to 10 | > 20
24 | N#Cc1ccc(-c2ccc3nc(N)nc(OCC4CCC4)c3c2)cc1 [Example 122, 4-(2-Amino-4-cyclobutylmethoxy-quinazolin-6-yl)-benzonitrile] | 1 to 10 | > 20
25 | Nc1nc(OCC2CCC2)c2cc(-c3ccc(C(F)(F)F)cc3Cl)ccc2n1 [Example 124] | 1 to 10 | > 20
26 | CCOc1nc(N)nc2ccc(-c3ccc(C(=O)N(C)C)cc3)cc12 [Example 125, 4-(2-Amino-4-ethoxy-quinazolin-6-yl)-N,N-dimethyl-benzamide] | 0.3 to 1 | > 20
27 | CCOc1nc(N)nc2ccc(-c3ccc(C(=O)N4CCCC4)cc3)cc12 [Example 126, [4-(2-Amino-4-ethoxy-quinazolin-6-yl)-phenyl]-pyrrolidin-1-yl-methanone] | 1 to 10 | > 20
28 | CC(C)Oc1nc(N)nc2ccc(-c3ccc(C(=O)N(C)C)cc3)cc12 [Example 127, 4-(2-Amino-4-isopropoxy-quinazolin-6-yl)-N,N-dimethyl-benzamide] | 1 to 10 | > 20
29 | CC(C)Oc1nc(N)nc2ccc(-c3ccc(C(=O)N4CCOCC4)cc3)cc12 [Example 128, [4-(2-Amino-4-isopropoxy-quinazolin-6-yl)-phenyl]-morpholin-4-yl-methanone] | 1 to 10 | > 20
30 | CCOc1nc(N)nc2ccc(-c3ccc(C(=O)NCc4ccccc4)cc3)cc12 [Example 149, 4-(2-Amino-4-ethoxy-quinazolin-6-yl)-N-benzyl-benzamide] | 1 to 10 | > 20
31 | CCOc1nc(N)nc2ccc(-c3ccc(C(=O)NCC(C)C)cc3)cc12 [Example 150, 4-(2-Amino-4-ethoxy-quinazolin-6-yl)-N-isobutyl-benzamide] | 1 to 10 | 10 to 20
32 | CCOc1nc(N)nc2ccc(-c3ccc(C(=O)NC4CCCCC4)cc3)cc12 [Example 151, 4-(2-Amino-4-ethoxy-quinazolin-6-yl)-N-cyclohexyl-benzamide] | 1 to 10 | 10 to 20
33 | CCCCNC(=O)c1ccc(-c2ccc3nc(N)nc(OCC)c3c2)cc1 [Example 152, 4-(2-Amino-4-ethoxy-quinazolin-6-yl)-N-butyl-benzamide] | 0.3 to 1 | > 20
34 | CCOc1nc(N)nc2ccc(-c3ccc(C(=O)NC(C)(C)C)cc3)cc12 [Example 153, 4-(2-Amino-4-ethoxy-quinazolin-6-yl)-N-tert-butyl-benzamide] | 0.3 to 1 | 10 to 20
35 | CCOc1nc(N)nc2ccc(-c3ccc(C(=O)NC4CCCC4)cc3)cc12 [Example 154, 4-(2-Amino-4-ethoxy-quinazolin-6-yl)-N-cyclopentyl-benzamide] | 0.3 to 1 | 10 to 20
